The values below are quoted from earlier work in US7014866B2, “High dose solid unit oral pharmaceutical dosage form of amorphous nelfinavir mesylate and process for making same” (Hoffmann-La Roche Inc., priority 2001, dated 2006).

Counter-ions that a name gives are not always drawn.

For this data set the following is noted: water at pH less than or equal to 4.

In the case of `Cc1c(O)cccc1C(=O)N[C@@H](CSc1ccccc1)[C@H](O)CN1C[C@H]2CCCC[C@H]2C[C@H]1C(=O)NC(C)(C)C` [Nelfinavir mesylate], the solubility in water result is “slightly soluble”.
